pIC50: −log10 of the molar value. Where two headings read alike, the source gives them in different places.
Assays:
[1] = tested on: CAL-62; experiment: CCK-8 tumor cell proliferation, CAL-62; type: cell-based, Human; settings: Homo sapiens; Table 19, IRAK4 inhibitor based; CAL-62; read-out: IC50 inhibiting proliferation of tumor cells, CAL-62
Method in brief: (§1)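 Viability determined colorimetrically with CCK-8 following compound treatment. Dosing began 24 h post-plating using ten 5-fold dilutions capped at 10 μM; growth-inhibition curves yielded IC50.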

[2] = tested on: SU-DHL-4; experiment: CCK-8 tumor cell proliferation, SU-DHL-4; type: cell-based, Human; settings: Homo sapiens, Table 19, IRAK4 inhibitor based, read-out: IC50 inhibiting proliferation of tumor cells, SU-DHL-4
Experimental: (§2) The tumor cells used herein were cultured in a cell culture medium listed in table 4 at 37° C. in an incubator with 5% CO2. Prior to experimentation, all cells used were correctly identified by STR profiling, and tested negative for mycoplasma through routine screenings.
(§3) IC50 values of the compounds of the present disclosure (including the compounds in Tables 1 and 3, and compounds of examples) were measured using the Meilun Cell Counting Kit-8 kit from Dalian Meilun Biotech Co., Ltd. Assay details are as follows: tumor cells were seeded in a 96-well plate at a density listed in Table 5. After 24 h, 100 μL of the inoculated cells were treated with 0.5 μL of the compounds of the present disclosure (including the compounds in Tables 1 and 3, and compounds of examples) at 10 different successively decreasing concentrations (starting at the highest concentration of 10 μM; 5-fold serial dilutions). After the cells were treated with the compounds of the present disclosure for a period of time, the cell viability detection reagent was added to the culture medium for cell viability assessment according to the instructions provided with the CCK-8 kit. […] The growth inhibition of the compounds of the present disclosure on cells was plotted by Prism Graphpad software, and the IC50 values of the compounds of the present disclosure were calculated therefrom.

[3] = tested on: LNcap; experiment: CCK-8 tumor cell proliferation, LNcap; type: cell-based, Human; settings: Homo sapiens
Experimental: as §2, §3

[4] = tested on: CCRF-CEM; experiment: CCK-8 tumor cell proliferation, CCRF-CEM; type: cell-based, Human; settings: Homo sapiens, CCRF-CEM, read-out: IC50 inhibiting proliferation of tumor cells, CCRF-CEM
Method in brief: as §1

[5] = tested on: Jurkat; experiment: CCK-8 tumor cell proliferation, Jurkat; type: cell-based, Human; settings: Homo sapiens, Table 19, IRAK4 inhibitor based, read-out: IC50 inhibiting proliferation of tumor cells, Jurkat
Method in brief: as §1

[6] = tested on: SW620; experiment: CCK-8 tumor cell proliferation, SW620; type: cell-based, Human; settings: Homo sapiens, SW-620; Table 19, IRAK4 inhibitor based; SW620; read-out: IC50 inhibiting proliferation of tumor cells, SW620
Method in brief: as §1

[7] = tested on: Mino; experiment: CCK-8 tumor cell proliferation, Mino; type: cell-based, Human; settings: Homo sapiens; Table 19, IRAK4 inhibitor based; Mino; read-out: IC50 inhibiting proliferation of tumor cells, Mino
Method in brief: as §1

[8] = tested on: MDA-MB-231; experiment: CCK-8 tumor cell proliferation, MDA-MB-231; type: cell-based, Human; settings: Homo sapiens; Table 20, BCL-2 inhibitor based; MDA-MB-231; read-out: IC50 inhibiting proliferation of tumor cells, MDA-MB-231
Method in brief: as §1

[9] = tested on: MM.1S; experiment: CCK-8 tumor cell proliferation, MM.1S; type: cell-based; settings: Homo sapiens, MM1.S; Table 20, BCL-2 inhibitor based; MM.1S; read-out: IC50 inhibiting proliferation of tumor cells, MM.1S
Method in brief: as §1

[10] = tested on: HCC827; experiment: CCK-8 tumor cell proliferation, HCC827; type: cell-based, Human; settings: Homo sapiens; Table 20, BCL-2 inhibitor based; HCC827; read-out: IC50 inhibiting proliferation of tumor cells, HCC827
Experimental: The tumor cells used herein were cultured in a cell culture medium listed in table 4 at 37° C. in an incubator with 5% CO2.
as §3, with “After” for “IC50 values of the compounds of the present disclosure (including the compounds in Tables 1 and 3, and compounds of examples) were measured using the Meilun Cell Counting Kit-8 kit from Dalian Meilun Biotech Co., Ltd. Assay details are as follows: tumor cells were seeded in a 96-well plate at a density listed in Table 5. After”

[11] = tested on: SR; experiment: CCK-8 tumor cell proliferation, SR; type: cell-based, Human; settings: Homo sapiens; Table 20, BCL-2 inhibitor based; SR; read-out: IC50 inhibiting proliferation of tumor cells, SR
Method in brief: as §1

[12] = tested on: MM.1R; experiment: CCK-8 tumor cell proliferation, MM.1R; type: cell-based; settings: Table 20, BCL-2 inhibitor based, read-out: IC50 inhibiting proliferation of tumor cells, MM.1R
Method in brief: as §1

[13] = tested on: MV-4-11; experiment: CCK-8 tumor cell proliferation, MV-4-11; type: cell-based, Human; settings: Homo sapiens, MV4-11; Table 19, IRAK4 inhibitor based; MV-4-11; read-out: IC50 inhibiting proliferation of tumor cells, MV-4-11
Experimental: as §2, §3

[14] = Table 19, IRAK4 inhibitor based, Lncap, read-out: IC50 inhibiting proliferation of tumor cells, Lncap
[15] = Table 19, IRAK4 inhibitor based
[16] = Table 20, BCL-2 inhibitor based, LNcap, read-out: IC50 inhibiting proliferation of tumor cells, LNcap
[17] = Table 20, BCL-2 inhibitor based

pIC50 [1] | pIC50 [2] | pIC50 [3, 14] | pIC50 [4, 15] | pIC50 [5] | pIC50 [6] | pIC50 [7] | pIC50 [8] | pIC50 [3, 16] | pIC50 [9] | pIC50 [10] | pIC50 [4, 17] | pIC50 [11] | pIC50 [12] | pIC50 [13] | Structure (SMILES)
> 7.30 | > 7.30 | > 7.30 | > 7.30 | > 7.30 | > 7.30 |  |  |  |  |  |  |  |  |  | O=C1CCC(N2Cc3c(ccc(CN4CCC(n5cc(NC(=O)c6coc(-c7ccnc(NCC(F)(F)F)c7)n6)c(C(F)F)n5)CC4)c3F)C2=O)C(=O)N1 (centres unmarked) [GT-04098, N-(3-(difluoromethyl)-1-(1-((2-(2,6-dioxopiperidin-3-yl)-4-fluoro-1-oxoisoindolin-5-yl)methyl)piperidin-4-yl)-1H-pyrazol-4-yl)-2-(2-((2,2,2-trifluoroethyl)amino)pyridin-4-yl)oxazole-4-carboxamide]
 | 5.00 to 5.30 |  |  |  |  | 5.30 to 6.00 |  |  |  |  |  |  |  |  | O=C1CCC(N2C(=O)c3ccc(CN4CCC(n5cc(NC(=O)c6cnn7ccc(N8CCOCC8)nc67)c(C(F)F)n5)CC4)cc3C2=O)C(=O)N1 (centres unmarked) [GT-03815, N-(3-(difluoromethyl)-1-(1-((2-(2,6-dioxopiperidin-3-yl)-1,3-dioxoisoindolin-5-yl)methyl)piperidin-4-yl)-1H-pyrazol-4-yl)-5-morpholinopyrazolo[1,5-a]pyrimidine-3-carboxamide]
> 7.30 | > 7.30 | > 7.30 | > 7.30 | > 7.30 | > 7.30 |  |  |  |  |  |  |  |  |  | O=C1CCC(N2Cc3cc(CN4CCC(n5cc(NC(=O)c6coc(-c7ccnc(NCC8CC8)c7)n6)c(C(F)F)n5)CC4)c(F)cc3C2=O)C(=O)N1 (centres unmarked) [GT-04171, 2-(2-((cyclopropylmethyl)amino)pyridin-4-yl)-N-(3-(difluoromethyl)-1-(1-((2-(2,6-dioxopiperidin-3-yl)-6-fluoro-1-oxoisoindolin-5-yl)methyl)piperidin-4-yl)-1H-pyrazol-4-yl)oxazole-4-carboxamide]
 |  |  |  |  |  |  | > 7.30 | > 7.30 | > 7.30 | > 7.30 | > 7.30 | > 7.30 | > 7.30 |  | CC1(C)CCC(c2ccc(Cl)cc2)=C(CN2CCN(c3ccc(C(=O)NS(=O)(=O)c4ccc(N[C@H](CCN5CCN(Cc6ccc7c(c6F)CN(C6CCC(=O)NC6=O)C7=O)CC5)CSc5ccccc5)c(S(=O)(=O)C(F)(F)F)c4)cc3)CC2)C1 (stereo partly drawn) [GT-03478, 4-(4-((4′-chloro-4,4-dimethyl-3,4,5,6-tetrahydro-[1,1′-biphenyl]-2-yl)methyl)piperazin-1-yl)-N-((4-(((2R)-4-(4-((2-(2,6-dioxopiperidin-3-yl)-4-fluoro-1-oxoisoindolin-5-yl)methyl)piperazin-1-yl)-1-(phenylthio)butan-2-yl)amino)-3-((trifluoromethyl)sulfonyl)phenyl)sulfonyl)benzamide]
 | 5.30 to 6.00 |  |  |  | 5.30 to 6.00 | 6.30 to 7.00 |  |  |  |  |  |  |  | 6.30 to 7.00 | O=C1CCC(N2Cc3cc(CN4CCC(n5cc(NC(=O)c6cnn7ccc(N8CCOCC8)nc67)c(C(F)F)n5)CC4)cc(F)c3C2=O)C(=O)N1 (centres unmarked) [GT-03812, N-(3-(difluoromethyl)-1-(1-((2-(2,6-dioxopiperidin-3-yl)-7-fluoro-1-oxoisoindolin-5-yl)methyl)piperidin-4-yl)-1H-pyrazol-4-yl)-5-morpholinopyrazolo[1,5-a]pyrimidine-3-carboxamide]
 |  |  |  |  |  |  | > 7.30 | > 7.30 | > 7.30 | 6.30 to 7.00 | > 7.30 | > 7.30 | > 7.30 |  | CC1(C)CCC(c2ccc(Cl)cc2)=C(CN2CCN(c3ccc(C(=O)NS(=O)(=O)c4ccc(N[C@H](CCN5CCN(Cc6cc(F)c7c(c6)CN(C6CCC(=O)NC6=O)C7=O)CC5)CSc5ccccc5)c(S(=O)(=O)C(F)(F)F)c4)cc3)CC2)C1 (stereo partly drawn) [GT-03479, 4-(4-((4′-chloro-4,4-dimethyl-3,4,5,6-tetrahydro-[1,1′-biphenyl]-2-yl)methyl)piperazin-1-yl)-N-((4-(((2R)-4-(4-((2-(2,6-dioxopiperidin-3-yl)-7-fluoro-1-oxoisoindolin-5-yl)methyl)piperazin-1-yl)-1-(phenylthio)butan-2-yl)amino)-3-((trifluoromethyl)sulfonyl)phenyl)sulfonyl)benzamide]

— patent publication US20260199323A1, “LIGAND COMPOUNDS FOR E3 UBIQUITIN LIGASE, PROTEIN DEGRADERS DEVELOPED ON BASIS OF LIGAND COMPOUNDS, AND USES THEREOF” (GLUETACS THERAPEUTICS (SHANGHAI) CO., LTD., priority 2021, published 2026)
